These results are taken from ChEMBL document CHEMBL5665443, “Enzyme Inhibitor Single Concentration assay results for EUbOPEN Chemogenomics Library” (2024).

What all share (conditions): Compound Concentration 10.0 uM, Hit No
The target in assay [1] is Methyl-CpG-binding domain protein 4 (Homo sapiens) (UniProt O95243).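 Further: MBD4 activity read as fluorescence at 594 nm from cleavage and release of a quenched duplex DNA oligonucleotide, with APE1 coupled to incise the strand and raise turnover.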
Methyl-CpG-binding domain protein 4 (Homo sapiens), sequence (O95243 whole entry, the tested form may be a part): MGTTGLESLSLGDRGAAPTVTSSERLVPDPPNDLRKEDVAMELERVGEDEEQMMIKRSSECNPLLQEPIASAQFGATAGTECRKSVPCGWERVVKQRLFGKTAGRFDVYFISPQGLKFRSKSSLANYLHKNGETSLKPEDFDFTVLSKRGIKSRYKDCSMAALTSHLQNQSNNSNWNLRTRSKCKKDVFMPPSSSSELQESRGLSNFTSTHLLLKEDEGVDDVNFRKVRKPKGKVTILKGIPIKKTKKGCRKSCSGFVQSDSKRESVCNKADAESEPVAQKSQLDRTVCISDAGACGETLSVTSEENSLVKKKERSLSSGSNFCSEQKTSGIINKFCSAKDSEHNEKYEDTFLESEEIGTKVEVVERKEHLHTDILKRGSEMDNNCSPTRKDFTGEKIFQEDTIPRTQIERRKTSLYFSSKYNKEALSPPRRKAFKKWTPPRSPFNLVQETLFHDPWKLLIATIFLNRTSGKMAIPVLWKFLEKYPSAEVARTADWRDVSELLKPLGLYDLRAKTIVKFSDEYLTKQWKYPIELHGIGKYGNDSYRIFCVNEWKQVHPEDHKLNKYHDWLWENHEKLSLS
Description: Inhibition of MBD4 by quantifying inhibition of MBD4-mediated cleavage and dissociation of quenched duplex DNA oligonucleotides, measured as fluorescence at 594 nm. To generate a functional strand incision and increase turn-over this assay is coupled to APE1.
In assay [2] the target is DNA-3-methyladenine glycosylase (Homo sapiens) (UniProt P29372).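 Further: enzyme assay where MPG cuts a quenched duplex DNA oligonucleotide probe, paired with APE1 for strand incision and turnover, read as fluorescence at 594 nm.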
DNA-3-methyladenine glycosylase (Homo sapiens), sequence (P29372 whole entry): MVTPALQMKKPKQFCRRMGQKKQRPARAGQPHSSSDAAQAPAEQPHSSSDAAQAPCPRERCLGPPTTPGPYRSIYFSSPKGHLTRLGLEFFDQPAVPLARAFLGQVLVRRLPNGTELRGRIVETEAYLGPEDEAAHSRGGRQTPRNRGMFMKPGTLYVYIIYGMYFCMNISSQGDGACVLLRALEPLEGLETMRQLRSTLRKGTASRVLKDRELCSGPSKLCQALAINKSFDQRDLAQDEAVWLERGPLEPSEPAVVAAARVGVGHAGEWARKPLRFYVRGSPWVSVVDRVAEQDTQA
Description: Inhibition of MPG by quantifying inhibition of MPG-mediated cleavage and dissociation of quenched duplex DNA oligonucleotides, measured as fluorescence at 594 nm. To generate a functional strand incision and increase turn-over this assay is coupled to APE1.
Assay [3] concerns the target T1, Adenine DNA glycosylase (Homo sapiens) (UniProt Q9UIF7).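 Further: human MUTYH activity read as 594 nm fluorescence from cleavage and release of a quenched DNA duplex, coupled with APE1 for strand incision, lower signal meaning inhibition.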
T1 sequence (whole entry): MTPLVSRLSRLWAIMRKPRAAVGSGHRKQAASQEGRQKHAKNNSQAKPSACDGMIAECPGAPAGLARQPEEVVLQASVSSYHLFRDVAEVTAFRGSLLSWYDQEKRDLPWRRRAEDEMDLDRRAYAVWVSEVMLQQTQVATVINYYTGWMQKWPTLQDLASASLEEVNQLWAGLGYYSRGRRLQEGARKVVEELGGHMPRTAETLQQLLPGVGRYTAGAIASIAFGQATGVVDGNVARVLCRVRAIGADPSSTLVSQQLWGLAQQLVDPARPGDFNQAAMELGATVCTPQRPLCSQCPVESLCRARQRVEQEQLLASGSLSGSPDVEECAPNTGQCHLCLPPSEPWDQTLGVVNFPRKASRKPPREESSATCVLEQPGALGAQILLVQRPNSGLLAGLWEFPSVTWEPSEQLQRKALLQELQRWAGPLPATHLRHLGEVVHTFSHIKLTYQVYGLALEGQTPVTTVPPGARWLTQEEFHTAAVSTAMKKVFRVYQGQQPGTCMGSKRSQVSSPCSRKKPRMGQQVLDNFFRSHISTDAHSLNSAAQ
Description: Inhibition of MUTYH by quantifying inhibition of MUTYH-mediated cleavage and dissociation of quenched duplex DNA oligonucleotides, measured as fluorescence at 594 nm. To generate a functional strand incision and increase turn-over this assay is coupled to APE1.

The target in assay [4] is Endonuclease 8-like 1 (Homo sapiens) (UniProt Q96FI4).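 Further: fluorescence at 594 nm from quenched duplex DNA oligonucleotides released by NEIL1 cleavage and strand separation, reported as reduction of this enzyme activity.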
Endonuclease 8-like 1 (Homo sapiens), sequence (Q96FI4 whole entry): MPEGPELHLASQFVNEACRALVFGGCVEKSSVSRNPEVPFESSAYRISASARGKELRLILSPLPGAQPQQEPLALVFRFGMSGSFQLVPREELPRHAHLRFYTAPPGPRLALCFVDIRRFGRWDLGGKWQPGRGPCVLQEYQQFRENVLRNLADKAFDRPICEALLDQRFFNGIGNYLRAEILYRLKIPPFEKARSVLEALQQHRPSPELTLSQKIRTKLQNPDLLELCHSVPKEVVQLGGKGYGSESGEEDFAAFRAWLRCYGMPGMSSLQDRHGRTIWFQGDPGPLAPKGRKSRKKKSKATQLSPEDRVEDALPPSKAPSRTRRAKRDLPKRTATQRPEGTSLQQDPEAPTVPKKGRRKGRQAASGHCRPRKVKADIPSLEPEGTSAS
Description: Inhibition of NEIL1 by quantifying inhibition of NEIL1-mediated cleavage and dissociation of quenched duplex DNA oligonucleotides, measured as fluorescence at 594 nm.
Assay [5] concerns the target T2, Endonuclease 8-like 2 (Homo sapiens) (UniProt Q969S2).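 Further: fluorescence at 594 nm reports NEIL2 cutting and release of a quenched double-stranded DNA oligo substrate, reduced signal read as inhibition.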
T2 sequence (whole entry): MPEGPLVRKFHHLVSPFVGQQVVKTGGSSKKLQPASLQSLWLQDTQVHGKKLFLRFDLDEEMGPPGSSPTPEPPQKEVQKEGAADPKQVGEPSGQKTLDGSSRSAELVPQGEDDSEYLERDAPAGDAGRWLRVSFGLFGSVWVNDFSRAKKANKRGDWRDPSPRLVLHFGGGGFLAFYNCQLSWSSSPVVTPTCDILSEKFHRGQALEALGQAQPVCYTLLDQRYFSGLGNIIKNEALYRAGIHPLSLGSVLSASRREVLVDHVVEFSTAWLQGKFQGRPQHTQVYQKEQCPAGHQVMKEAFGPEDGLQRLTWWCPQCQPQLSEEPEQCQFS
Description: Inhibition of NEIL2 by quantifying inhibition of NEIL2-mediated cleavage and dissociation of quenched duplex DNA oligonucleotides, measured as fluorescence at 594 nm.

Assay [6] addresses T3, Endonuclease III-like protein 1 (Homo sapiens) (UniProt P78549).
T3 sequence (whole entry): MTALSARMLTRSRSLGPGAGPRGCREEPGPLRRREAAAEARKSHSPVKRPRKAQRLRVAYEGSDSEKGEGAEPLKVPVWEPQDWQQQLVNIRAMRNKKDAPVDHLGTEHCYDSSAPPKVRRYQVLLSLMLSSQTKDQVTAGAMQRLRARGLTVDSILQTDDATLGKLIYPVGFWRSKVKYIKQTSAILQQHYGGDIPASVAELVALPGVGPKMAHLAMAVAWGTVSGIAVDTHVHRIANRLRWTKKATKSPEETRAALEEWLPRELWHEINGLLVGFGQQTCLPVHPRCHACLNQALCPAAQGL
Description: Inhibition of NTHL1 by quantifying inhibition of NTHL1-mediated cleavage and dissociation of quenched duplex DNA oligonucleotides, measured as fluorescence at 594 nm.

Assay [7] has as its target G/T mismatch-specific thymine DNA glycosylase (Homo sapiens) (UniProt Q13569).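 Further: human TDG cleavage of quenched duplex DNA oligonucleotides coupled to APE1, strand release read as fluorescence at 594 nm, inhibition of TDG activity.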
Description: Inhibition of TDG by quantifying inhibition of TDG-mediated cleavage and dissociation of quenched duplex DNA oligonucleotides, measured as fluorescence at 594 nm. To generate a functional strand incision and increase turn-over this assay is coupled to APE1.
Assay [8] has as its target Uracil-DNA glycosylase (Homo sapiens) (UniProt P13051).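 Further: UNG excision on a quenched double-stranded DNA oligo probe, with APE1 added for strand incision and turnover, read as fluorescence at 594 nm as strands separate.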
Description: Inhibition of UNG by quantifying inhibition of UNG-mediated cleavage and dissociation of quenched duplex DNA oligonucleotides, measured as fluorescence at 594 nm. To generate a functional strand incision and increase turn-over this assay is coupled to APE1.
For assay [9], the target named is N-glycosylase/DNA lyase (Homo sapiens) (UniProt O15527).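 Further: OGG1 cleavage of a quenched duplex DNA oligonucleotide, coupled to APE1 for strand incision, read as fluorescence at 594 nm.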
N-glycosylase/DNA lyase (Homo sapiens), sequence (O15527 whole entry): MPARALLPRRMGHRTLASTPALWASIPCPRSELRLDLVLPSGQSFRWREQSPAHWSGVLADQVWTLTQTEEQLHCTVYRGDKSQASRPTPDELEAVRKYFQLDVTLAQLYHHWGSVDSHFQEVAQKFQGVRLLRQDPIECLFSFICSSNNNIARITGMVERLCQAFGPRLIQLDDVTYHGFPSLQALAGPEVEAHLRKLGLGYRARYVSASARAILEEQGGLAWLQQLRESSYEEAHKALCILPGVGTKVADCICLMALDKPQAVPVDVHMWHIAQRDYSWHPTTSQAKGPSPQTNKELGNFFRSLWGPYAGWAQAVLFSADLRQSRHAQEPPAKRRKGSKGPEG
Description: Inhibition of OGG1 by quantifying inhibition of OGG1-mediated cleavage and dissociation of quenched duplex DNA oligonucleotides, measured as fluorescence at 594 nm. To generate a functional strand incision and increase turn-over this assay is coupled to APE1.
For assay [10], the target named is T4, Single-strand selective monofunctional uracil DNA glycosylase (Homo sapiens) (UniProt Q53HV7).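 Further: enzymatic SMUG1 assay coupled with APE1, reading fluorescence at 594 nm released when a quenched double-stranded DNA oligonucleotide substrate is cleaved and separated.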
T4 sequence (whole entry): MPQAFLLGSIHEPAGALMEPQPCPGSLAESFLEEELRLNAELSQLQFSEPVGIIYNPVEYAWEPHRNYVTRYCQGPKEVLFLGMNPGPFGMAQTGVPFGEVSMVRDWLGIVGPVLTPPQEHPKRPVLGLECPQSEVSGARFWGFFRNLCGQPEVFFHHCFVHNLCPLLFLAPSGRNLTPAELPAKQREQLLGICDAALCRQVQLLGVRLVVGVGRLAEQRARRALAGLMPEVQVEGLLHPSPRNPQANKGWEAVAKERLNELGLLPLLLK
Description: Inhibition of SMUG1 by quantifying inhibition of SMUG1-mediated cleavage and dissociation of quenched duplex DNA oligonucleotides, measured as fluorescence at 594 nm. To generate a functional strand incision and increase turn-over this assay is coupled to APE1.

G/T mismatch-specific thymine DNA glycosylase (Homo sapiens), sequence (Q13569 whole entry): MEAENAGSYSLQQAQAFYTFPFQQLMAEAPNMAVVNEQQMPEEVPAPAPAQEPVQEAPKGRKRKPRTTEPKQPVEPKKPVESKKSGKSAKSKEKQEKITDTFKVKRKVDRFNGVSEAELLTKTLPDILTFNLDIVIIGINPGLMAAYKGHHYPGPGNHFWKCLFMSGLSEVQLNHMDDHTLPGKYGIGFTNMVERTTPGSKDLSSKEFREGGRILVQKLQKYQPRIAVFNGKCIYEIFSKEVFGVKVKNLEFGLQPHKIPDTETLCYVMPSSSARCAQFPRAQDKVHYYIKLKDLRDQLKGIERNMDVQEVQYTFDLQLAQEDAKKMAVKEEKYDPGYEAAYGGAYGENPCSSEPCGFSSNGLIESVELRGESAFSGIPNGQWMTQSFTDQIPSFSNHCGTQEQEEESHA
Uracil-DNA glycosylase (Homo sapiens), sequence (P13051 whole entry): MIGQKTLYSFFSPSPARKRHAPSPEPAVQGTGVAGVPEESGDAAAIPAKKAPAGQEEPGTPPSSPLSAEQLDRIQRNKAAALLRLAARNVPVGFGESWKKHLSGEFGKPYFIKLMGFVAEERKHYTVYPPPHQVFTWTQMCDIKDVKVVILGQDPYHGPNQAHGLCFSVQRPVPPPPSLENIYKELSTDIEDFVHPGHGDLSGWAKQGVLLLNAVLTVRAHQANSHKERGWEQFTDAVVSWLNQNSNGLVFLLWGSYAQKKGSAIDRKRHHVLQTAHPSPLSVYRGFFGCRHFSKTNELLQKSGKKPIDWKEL

`CCOC(=O)c1ncn2c1[C@@H]1CCCN1C(=O)c1cc(OC)ccc1-2`: the inhibition was 14.4% in assay [1]; -5.68% in assay [2]; -3.58% in [3]; -2.51% in [4]; -4.43% in [5]; -3.56% in assay [6]. Moreover, the figures for the inhibition in [7] and in assay [8] were -5.12% and -7.79%, respectively.

With `COC[C@@H](c1ccc(C(F)(F)F)cc1)N1CCN(C2(C)CCN(C(=O)c3c(C)ncnc3C)CC2)C[C@@H]1C`, the inhibition was 11.1% in assay [1]; -7.67% in [2]; 7.5% in [3]; -4.58% in assay [4]; 16.2% in [6]; -1.76% in [7]. For the same compound, the inhibition in assay [8] was -3.97%.

For the compound `O=C(O)[C@H]1O[C@H](OP(=O)(O)OP(=O)(O)OC[C@H]2O[C@@H](n3ccc(=O)[nH]c3=O)[C@H](O)[C@@H]2O)[C@H](O)[C@@H](O)[C@@H]1O`, the inhibition is 18.3% in [1]; 24.7% in [2]; 14.9% in [3]; -7.23% in [5]; 15.4% in [6]; 15.8% in assay [7].

Take `C[C@H](C[C@H](N)C(=O)O)C(=O)O`: the inhibition in [1] was 13.5%; in assay [2], 14.2%; in assay [3] it was 17%; in assay [4], -6.51%; in [5] it was 0.414%; in [6], -6.04%. Also, in [7], the inhibition turned out to be 0.112%.

As to `CC1(C)Cc2c(CN3CCC4(CC3)CCN(C(=O)c3ccc(N)cn3)CC4)cccc2O1`, the inhibition in [1] is 21.4%; in assay [2], 8.62%; in assay [3], 2.36%; in assay [4] it was 7.27%; in [5], -6.46%; in assay [6] it was 8.82%. Besides, the inhibition in assay [7] was -2.08%.

For the compound `c1ccc(C2CN3CCC2CC3)cc1` (stereo unspecified), the inhibition in assay [1] was 22%; in assay [2], 3.54%; in assay [3], 22.9%; in assay [4], 0.158%; in [5] it was -3.92%; in assay [6], 26.2%. The inhibition in [7] is 22.8%; in assay [8], -9.01%.

In the case of `O=C1c2ccccc2C(Cc2ccncc2)(Cc2ccncc2)c2ccccc21`, the inhibition in assay [1] is 23.6%; in [2], 12.1%; in assay [3], 8.2%; in [4], 6.83%; in assay [5], -2.64%; in assay [6], 20.4%. For the same compound, the inhibition in assay [7] came out at 21.3%.

In the case of `CN1CC[C@@]23CCCC[C@@H]2[C@@H]1Cc1ccc(O)cc13`, the inhibition in [1] is 3.69%; in assay [2], -0.416%; in assay [3], -5.81%; in assay [4], -2.06%; in [5], -9.52%; in assay [6], 14.6%. The results for the inhibition in [7] and in assay [8] were -3.74% and -7.94%, respectively.

Turning to `Cc1cc(C)c(NC(=O)C2CC3CCC2C3)c(C)c1` (stereo unspecified), the inhibition in assay [1] is 26.4%; in assay [2] it was 7.56%; in [3], 27.8%; in [4] it was -1.18%; in [6], 6.35%; in assay [7] it was 5.7%. In [8], the inhibition was -9.01%.

Regarding `C[C@H]1CN(C[C@H](Cc2ccccc2)C(=O)NCC(=O)O)CC[C@@]1(C)c1cccc(O)c1`, the inhibition is 21.1% in [1]; 22.9% in [2]; 40.2% in assay [3]; -4.44% in [4]; -9.01% in [5]; 34.4% in assay [6]. The inhibition was 37.5% in [7] and -7.63% in assay [8].

As for `CN1CCN(Cc2ccc(-c3cccc(C(=O)Nc4ccccc4CC(=O)O)c3)cc2)CC1`, the inhibition was 18.1% in [1]; 12.7% in [2]; 17.7% in assay [3]; 17.2% in assay [4]; -2.64% in assay [5]; -1.91% in [6]. In addition, the values for the inhibition in assay [7] and in assay [8] were 14.1% and -2.65%, respectively.

On to `CCN(c1ccccc1)c1cc(NC)[n+](C)c(C)n1`, for which the inhibition is 25.3% in assay [1]; 1.67% in [2]; 7.99% in [3]; -3.4% in assay [4]; 4.75% in assay [5]; 30.3% in assay [6]. Further, the inhibition in assay [7] was 7.48%; in assay [8], -8.21%.

`CC1(C)N=C(C2CCCCC2)c2ccc(C#N)cc2N(c2ccc(NCCNC3CCOCC3)cc2)C1=O`: the inhibition in [1] is 10.6%; in assay [2], 7.31%; in assay [3], 1.14%; in assay [4] it was 4.75%; in assay [5] it was -3.41%; in assay [6], 19.6%. Besides, the inhibition in assay [7] turned out to be 5.19%.

On to `Cc1ccccc1C(=O)Nc1ccc(C(=O)N2CCCC(N(C)C)c3ccccc32)cc1` (stereo unspecified), for which the inhibition in assay [1] turned out to be 19.4%; in assay [2] it was 11.6%; in [3], 10.3%; in assay [4], 11.6%; in assay [6], 21.2%; in assay [7], 18.4%. Moreover, the inhibition in assay [8] is -2.08%.

With `NCCc1ccc(O)c(O)c1`, the inhibition is -0.746% in assay [2]; 17.9% in assay [3]; 2.32% in [4]; -3.23% in assay [5]; 21% in assay [6]; -1.68% in assay [9]. Also, the inhibition in [10] is -4.83%; in assay [7] it was 8.49%; in [8] it was -7.47%.

For the compound `CN1CCC(C(=O)c2cccc(NC(=O)c3c(F)cc(F)cc3F)n2)CC1`, the inhibition in assay [2] was 2.3%; in [3] it was 9.62%; in assay [4], 4.54%; in assay [5] it was -1.73%; in [6], -6.14%; in assay [9], -2.69%. Also, the inhibition was -9.63% in assay [10], 19.6% in assay [7] and -8.11% in assay [8].

Regarding `CC(C)c1ccc(CC(=O)N[C@H](C)c2ccc(OCC(F)(F)F)cn2)cc1`, the inhibition in assay [2] was 9.35%; in assay [3], -5.06%; in assay [4], 3.42%; in assay [5] it was -3.66%; in [6], 8%; in assay [9], -4.46%. For the same compound, the values for the inhibition in assay [10], in assay [7] and in [8] were 4.45%, -9.7% and -0.689%, respectively.

Consider `c1ccc2c(c1)CCC[C@H]2Nc1nc2ccccc2[nH]1`, for which the inhibition in assay [2] was 9.2%; in [3], 2.96%; in assay [4], 4.46%; in assay [5], 3.47%; in assay [6], 4.7%; in assay [9], 1.89%. Moreover, the inhibition in assay [10] is -5.61%; in assay [7] it was 8.8%; in assay [8] it was -4.72%.

Take `c1cnc2cc3c(cc2n1)[C@@H]1CNC[C@H]3C1`: the inhibition in assay [1] was found to be 15.3%; in assay [2], 9.33%; in [3] it was 34.7%; in assay [4], 4.16%; in [6] it was 12.9%; in assay [7], 13.7%. Further, the inhibition in [8] is -9.92%.

Broadly, the inhibition is the drop in the measured response relative to a control, in per cent.
